Consider 35 compounds from patent publication US9617258B2, “Pyrrolo[2,3-d]pyrimidinyl, pyrrolo[2,3-b]pyrazinyl and pyrrolo[2,3-d]pyridinyl acrylamides” (Pfizer Inc., priority 2013, dated 2017).

This data set is described as follows: Stability of JAK3 covalent inhibitors in human whole blood.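 Note: parent compound remaining over incubation time quantified by LC-MS/MS as peak area ratio against an internal standard, using pooled K2-EDTA blood.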 In kind it is in vitro ADME. Conditions: both sexes, whole blood, 37° C., read-out: Human blood stability t1/2.
With `C=CC(=O)N1CCC(Nc2cnc3[nH]cc(C(=O)N[C@H]4CC[C@@H](F)C4)c3n2)CC1` [Example 244, 2-[(1-acryloylpiperidin-4-yl)amino]-N-[(1S,3R)-3-fluorocyclopentyl]-5H-pyrrolo[2,3-b]pyrazine-7-carboxamide], the half-life at 1 μM worked out at 4.73 h.
To `C=CC(=O)N1CCN(c2cnc3[nH]cc(C(=O)NC(C)C)c3n2)[C@H](C)C1` [Example 307, 2-[(2R)-4-acryloyl-2-methylpiperazin-1-yl]-N-(propan-2-yl)-5H-pyrrolo[2,3-b]pyrazine-7-carboxamide] belongs 2.03 h; to `C=CC(=O)N1CC[C@@H](Nc2cnc3[nH]cc(C(=O)NC(C)C)c3n2)[C@@H](OC)C1` [Example 302, 2-{[(3S,4R)-1-acryloyl-3-methoxypiperidin-4-yl]amino}-N-(propan-2-yl)-5H-pyrrolo[2,3-b]pyrazine-7-carboxamide], greater than 6 h; to `C=CC(=O)N1CCC[C@@H](Nc2ncnc3[nH]cc(CC)c23)C1` [Example 44, 1-{(3R)-3-[(5-ethyl-7H-pyrrolo[2,3-d]pyrimidin-4-yl)amino]piperidin-1-yl}prop-2-en-1-one], 2.77 h.
To `C=CC(=O)N1CC[C@@H](F)[C@@H](Nc2ncnc3[nH]ccc23)C1` [Example 54, 1-((3S,4R)-3-((7H-pyrrolo[2,3-d]pyrimidin-4-yl)amino)-4-fluoropiperidin-1-yl)prop-2-en-1-one] belongs 3.5 h; to `C#CCNC(=O)c1c[nH]c2ncc(NC3CCN(C(=O)C=C)CC3)nc12` [Example 343, 2-((1-Acryloylpiperidin-4-yl)amino)-N-(prop-2-yn-1-yl)-5H-pyrrolo[2,3-b]pyrazine-7-carboxamide], greater than 5.85 h; to `C=CC(=O)N1CCC(Nc2cnc3[nH]cc(C(=O)NC4CCCCC4(F)F)c3n2)CC1` (centres unmarked) [Example 256, 2-[(1-acryloylpiperidin-4-yl)amino]-N-(2,2-difluorocyclohexyl)-5H-pyrrolo[2,3-b]pyrazine-7-carboxamide], 3.98 h.
To `C=CC(=O)N1C[C@H](C)C[C@@H](Nc2ncnc3[nH]ccc23)C1` (racemic) [Example 65, Rac-1-((3R,5R)-3-((7H-Pyrrolo[2,3-d]pyrimidin-4-yl)amino)-5-methylpiperidin-1-yl)prop-2-en-1-one] belongs 4.45 h.
`C=CC(=O)N1[C@@H]2CC[C@H]1CN(c1cnc3[nH]cc(C(=O)NC(C)C)c3n1)C2` [Example 301, 2-[(1R,5S)-8-acryloyl-3,8-diazabicyclo[3.2.1]oct-3-yl]-N-(propan-2-yl)-5H-pyrrolo[2,3-b]pyrazine-7-carboxamide]: the half-life at 1 μM amounted to 1.4 h.
Then `C=CC(=O)N1CCC(Nc2cnc3[nH]cc(C(=O)NC(C)(C)C)c3n2)CC1` [Example 266, 2-[(1-acryloylpiperidin-4-yl)amino]-N-tert-butyl-5H-pyrrolo[2,3-b]pyrazine-7-carboxamide], with 5.6 h; and `C=CC(=O)N1CCC[C@@H](Nc2ncnc3[nH]cc(Cl)c23)C1` [Example 3, (R)-1-(3-((5-chloro-7H-pyrrolo[2,3-d]pyrimidin-4-yl)amino)piperidin-1-yl)prop-2-en-1-one], with 3.2 h.
Then `C=CC(=O)N1CCC[C@](C)(Nc2ncnc3[nH]ccc23)C1` [Example 70, (S)-1-(3-((7H-Pyrrolo[2,3-d]pyrimidin-4-yl)amino)-3-methylpiperidin-1-yl)prop-2-en-1-one], with 5.72 h.
Consider `C=CC(=O)N1CCC[C@@H](Nc2ncnc3[nH]cc(-c4cncc(F)c4)c23)C1` [Example 23, 1-[(3R)-3-{[5-(5-fluoropyridin-3-yl)-7H-pyrrolo[2,3-d]pyrimidin-4-yl]amino}piperidin-1-yl]prop-2-en-1-one], for which the half-life at 1 μM was greater than 6 h.
As to `C=CC(=O)N1CC[C@@H](Nc2cnc3[nH]cc(C(=O)NC(C)C)c3n2)[C@H](O)C1` [Example 196, 2-{[(3R,4R)-1-acryloyl-3-hydroxypiperidin-4-yl]amino}-N-(propan-2-yl)-5H-pyrrolo[2,3-b]pyrazine-7-carboxamide], the half-life at 1 μM was greater than 6 h.
To `C=CC(=O)N1CCC[C@@H](Nc2ncnc3[nH]cc(-c4cncc(OC)c4)c23)C1` [Example 24, 1-[(3R)-3-{[5-(5-methoxypyridin-3-yl)-7H-pyrrolo[2,3-d]pyrimidin-4-yl]amino}piperidin-1-yl]prop-2-en-1-one] belongs greater than 6 h; to `C=CC(=O)N1CCC[C@@H](Nc2ncnc3[nH]cc(C#N)c23)C1` [Example 45, 4-{[(3R)-1-acryloylpiperidin-3-yl]amino}-7H-pyrrolo[2,3-d]pyrimidine-5-carbonitrile], greater than 6 h.
Consider `C=CC(=O)N1CC(Nc2cnc3[nH]cc(C(=O)NC(C)C)c3n2)C1` [Example 188, 2-[(1-acryloylazetidin-3-yl)amino]-N-(propan-2-yl)-5H-pyrrolo[2,3-b]pyrazine-7-carboxamide], for which the half-life at 1 μM came out at 1.6 h.
As for `C=CC(=O)N1CCC(Nc2cnc3[nH]cc(C(=O)NC[C@H](C)CC(F)(F)F)c3n2)CC1` [Example 241, 2-[(1-acryloylpiperidin-4-yl)amino]-N-[(2R)-4,4,4-trifluoro-2-methylbutyl]-5H-pyrrolo[2,3-b]pyrazine-7-carboxamide], the half-life at 1 μM was greater than 5.17 h.
Then `C=CC(=O)N1CCC(Nc2cnc3[nH]cc(C(=O)NCCC(F)(F)F)c3n2)CC1` [Example 246, 2-[(1-acryloylpiperidin-4-yl)amino]-N-(3,3,3-trifluoropropyl)-5H-pyrrolo[2,3-b]pyrazine-7-carboxamide], with greater than 6 h.
With `C=CC(=O)N1C[C@@H](C#N)C[C@@H](Nc2ncnc3[nH]ccc23)C1` [Example 58, (3S,5R)-5-((7H-pyrrolo[2,3-d]pyrimidin-4-yl)amino)-1-acryloylpiperidine-3-carbonitrile], the half-life at 1 μM came to 0.583 h.
Then `C=CC(=O)N1C[C@H](Nc2ncnc3[nH]ccc23)C[C@@H](OC)C1` [Example 77, 1-[(3R,5R)-3-Methoxy-5-(7H-pyrrolo[2,3-d]pyrimidin-4-ylamino)piperidin-1-yl]prop-2-en-1-one], with 4.2 h; and `C=CC(=O)N1CCC(Nc2cnc3[nH]cc(C(=O)NCC(C)CC(F)(F)F)c3n2)CC1` (centres unmarked) [Example 253, 2-[(1-acryloylpiperidin-4-yl)amino]-N-(4,4,4-trifluoro-2-methylbutyl)-5H-pyrrolo[2,3-b]pyrazine-7-carboxamide], with greater than 6 h.
Then `C=CC(=O)N1CC2CCN(c3cnc4[nH]cc(C(=O)NC(C)C)c4n3)C2C1` (centres unmarked) [Example 178, 2-(5-acryloylhexahydropyrrolo[3,4-b]pyrrol-1(2H)-yl)-N-(propan-2-yl)-5H-pyrrolo[2,3-b]pyrazine-7-carboxamide], with 2.38 h.
In the case of `C=CC(=O)N1CCC(Nc2cnc3[nH]cc(-c4ccnc(C)c4)c3n2)CC1` [Example 201, 1-(4-{[7-(2-methylpyridin-4-yl)-5H-pyrrolo[2,3-b]pyrazin-2-yl]amino}piperidin-1-yl)prop-2-en-1-one], the half-life at 1 μM is greater than 6 h.
To `C=CC(=O)N1CC[C@@H]2OCCN(c3ncnc4[nH]ccc34)[C@@H]2C1` [Example 90, 1-[(4aR,8aS)-4-(7H-Pyrrolo[2,3-d]pyrimidin-4-yl)hexahydro-2H-pyrido[4,3-b][1,4]oxazin-6(5H)-yl]prop-2-en-1-one] belongs 2.8 h.
Then `C=CC(=O)N1CCC(Nc2cnc3[nH]cc(-c4cnc(OC)nc4)c3n2)CC1` [Example 210, 1-(4-{[7-(2-methoxypyrimidin-5-yl)-5H-pyrrolo[2,3-b]pyrazin-2-yl]amino}piperidin-1-yl)prop-2-en-1-one], with greater than 6 h; and `C=CC(=O)N1C[C@@H](O)C[C@@H](Nc2ncnc3[nH]ccc23)C1` [Example 17, 1-((3R,5S)-3-(7H-Pyrrolo[2,3-d]pyrimidin-4-ylamino)-5-hydroxypiperidin-1-yl)prop-2-en-1-one], with greater than 5.17 h; and `C=CC(=O)N1CCC[C@@H](Nc2ncnc3[nH]cc(F)c23)C1` [Example 42, 1-{(3R)-3-[(5-fluoro-7H-pyrrolo[2,3-d]pyrimidin-4-yl)amino]piperidin-1-yl}prop-2-en-1-one], with greater than 6 h.
Then `C=C(C(=O)N1CC[C@@H]2CCN(c3ncnc4[nH]ccc34)[C@@H]2C1)C(F)(F)F` [Example 41, 1-((3aS,7aS)-1-(7H-Pyrrolo[2,3-d]pyrimidin-4-yl)hexahydro-1H-pyrrolo[2,3-c]pyridin-6(2H)-yl)-2-(trifluoromethyl)prop-2-en-1-one], with 0.0467 h.
For the compound `C=CC(=O)N1CC[C@H](Nc2cnc3[nH]cc(C(=O)NC(C)C)c3n2)[C@H](OC)C1` [Example 317, 2-{[(3R,4S)-1-acryloyl-3-methoxypiperidin-4-yl]amino}-N-(propan-2-yl)-5H-pyrrolo[2,3-b]pyrazine-7-carboxamide], the half-life at 1 μM is greater than 6 h.
`C=CC(=O)N1CC[C@H](C)[C@@H](Nc2ncnc3[nH]ccc23)C1` [Example 11, 1-((3R,4S)-3-((7H-pyrrolo[2,3-d]pyrimidin-4-yl)amino)-4-methylpiperidin-1-yl)prop-2-en-1-one]: the half-life at 1 μM was greater than 4.93 h.
Then `C=CC(=O)N1C[C@H](Nc2ncnc3[nH]ccc23)CC[C@@H]1CC` (single isomer, unassigned) [Example 9], with greater than 6 h; and `C=CC(=O)N1CCN(c2cnc3[nH]cc(C(=O)NC(C)C)c3n2)C[C@@H]1C` [Example 295, 2-[(3S)-4-acryloyl-3-methylpiperazin-1-yl]-N-(propan-2-yl)-5H-pyrrolo[2,3-b]pyrazine-7-carboxamide], with 3.15 h.
Then `C=CC(=O)N1CC[C@@H](C)[C@H](Nc2ncnc3[nH]ccc23)C1` [Example 112, 1-[(3S,4R)-4-Methyl-3-(7H-pyrrolo[2,3-d]pyrimidin-4-ylamino)piperidin-1-yl]prop-2-en-1-one], with 2.37 h; and `C=CC(=O)N1CCC(Nc2cnc3[nH]cc(C(=O)N[C@@H](C)CC)c3n2)CC1` [Example 285, 2-[(1-acryloylpiperidin-4-yl)amino]-N-[(2S)-butan-2-yl]-5H-pyrrolo[2,3-b]pyrazine-7-carboxamide], with 5.75 h.
